Results from US20250236608A1, “EGFR INHIBITORS” (Blueprint Medicines Corporation, priority 2022, published 2025).

Columns and labels:
EGFR (d746-750) = EGFR (d746-750) (Homo sapiens (Human), UniProt P00533, DEL746-750); experiment: Biochemical EGFR inhibition assay, EGFR (d746-750); conditions: Caliper mobility shift; 1.0 mM ATP or ATP Km; read-out: Enz EGFR_Exon19-del746-750 IC50
[1] = molecular target: pEGFR (Tyr1068) in PC-9 cells (Ex19Del) (Homo sapiens (Human), UniProt P00533, DEL746-750); experiment: PC-9 pEGFR AlphaLISA assay; format: cell-based; conditions: 4 hours incubation, p-EGFR (Tyr1068) AlphaLISA, read-out: Ext pEGFR_PC-9 Ex19Del IC50
Method in brief: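 Readout: AlphaLISA SureFire Ultra signal in cell lysates, with acceptor beads for 1.5-2 h and donor beads overnight at room temperature in the dark. Beforehand, unstimulated cells in 10% FBS medium received compounds (10 points, 4-fold steps) for 4 h at 37° C. IC50 came from percent inhibition curves.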

EGFR L858R = EGFR L858R (Homo sapiens (Human), UniProt P00533, L858R); experiment: Biochemical EGFR inhibition assay, EGFR L858R; conditions: Caliper mobility shift; 1.0 mM ATP or ATP Km; read-out: Enz EGFR_L858R IC50
EGFR L858R, sequence (P00533 25-1210 L858R): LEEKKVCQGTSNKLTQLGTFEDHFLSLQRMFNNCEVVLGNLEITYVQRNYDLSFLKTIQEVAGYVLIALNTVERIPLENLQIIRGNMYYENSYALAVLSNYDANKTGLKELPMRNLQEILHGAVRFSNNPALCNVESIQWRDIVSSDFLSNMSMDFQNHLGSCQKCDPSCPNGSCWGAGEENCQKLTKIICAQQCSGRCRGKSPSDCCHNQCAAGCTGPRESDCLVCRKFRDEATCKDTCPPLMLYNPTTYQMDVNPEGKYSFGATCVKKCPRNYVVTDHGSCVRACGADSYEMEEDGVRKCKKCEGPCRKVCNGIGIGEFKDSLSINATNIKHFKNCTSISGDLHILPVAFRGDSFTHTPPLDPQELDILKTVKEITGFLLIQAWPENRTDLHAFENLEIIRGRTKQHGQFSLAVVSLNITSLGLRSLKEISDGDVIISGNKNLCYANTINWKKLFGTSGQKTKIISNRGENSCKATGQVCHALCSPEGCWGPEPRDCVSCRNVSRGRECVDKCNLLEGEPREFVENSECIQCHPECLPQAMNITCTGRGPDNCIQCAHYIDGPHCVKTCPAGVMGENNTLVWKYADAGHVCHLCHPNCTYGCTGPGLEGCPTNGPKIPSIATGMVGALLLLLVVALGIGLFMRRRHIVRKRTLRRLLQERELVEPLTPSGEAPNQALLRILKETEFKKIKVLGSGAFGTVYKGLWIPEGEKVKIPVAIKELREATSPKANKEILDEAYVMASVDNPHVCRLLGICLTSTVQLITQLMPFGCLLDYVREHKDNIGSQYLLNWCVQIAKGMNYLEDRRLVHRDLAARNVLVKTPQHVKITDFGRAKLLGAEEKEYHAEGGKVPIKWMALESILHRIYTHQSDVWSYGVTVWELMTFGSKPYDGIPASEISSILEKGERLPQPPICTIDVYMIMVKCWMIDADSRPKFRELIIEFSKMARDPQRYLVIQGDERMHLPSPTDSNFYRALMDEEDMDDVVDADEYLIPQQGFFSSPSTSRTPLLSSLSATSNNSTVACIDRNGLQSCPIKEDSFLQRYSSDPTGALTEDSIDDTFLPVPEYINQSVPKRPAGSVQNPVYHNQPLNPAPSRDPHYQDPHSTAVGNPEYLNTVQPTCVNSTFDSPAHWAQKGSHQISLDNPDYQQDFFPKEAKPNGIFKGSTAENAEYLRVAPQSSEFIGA

EGFR (d746-750), sequence (P00533 other isoform, or with tags, fused parts or gaps del 1-694/del 746-750 limits assumed): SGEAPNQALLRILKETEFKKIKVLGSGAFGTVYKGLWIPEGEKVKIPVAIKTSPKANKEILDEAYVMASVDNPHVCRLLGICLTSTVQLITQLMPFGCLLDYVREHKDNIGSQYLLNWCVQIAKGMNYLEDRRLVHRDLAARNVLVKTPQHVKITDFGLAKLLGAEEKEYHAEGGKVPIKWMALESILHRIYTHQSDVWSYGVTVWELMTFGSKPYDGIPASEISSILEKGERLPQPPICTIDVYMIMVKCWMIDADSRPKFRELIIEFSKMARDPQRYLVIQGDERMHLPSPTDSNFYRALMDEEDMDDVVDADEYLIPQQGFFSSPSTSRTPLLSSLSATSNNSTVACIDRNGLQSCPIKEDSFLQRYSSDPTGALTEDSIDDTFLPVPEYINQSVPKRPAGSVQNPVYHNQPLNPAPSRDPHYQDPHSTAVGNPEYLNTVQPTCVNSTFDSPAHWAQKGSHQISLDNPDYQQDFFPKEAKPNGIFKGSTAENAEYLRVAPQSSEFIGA
pEGFR (Tyr1068) in PC-9 cells (Ex19Del), sequence (P00533 other isoform, or with tags, fused parts or gaps del 746-750): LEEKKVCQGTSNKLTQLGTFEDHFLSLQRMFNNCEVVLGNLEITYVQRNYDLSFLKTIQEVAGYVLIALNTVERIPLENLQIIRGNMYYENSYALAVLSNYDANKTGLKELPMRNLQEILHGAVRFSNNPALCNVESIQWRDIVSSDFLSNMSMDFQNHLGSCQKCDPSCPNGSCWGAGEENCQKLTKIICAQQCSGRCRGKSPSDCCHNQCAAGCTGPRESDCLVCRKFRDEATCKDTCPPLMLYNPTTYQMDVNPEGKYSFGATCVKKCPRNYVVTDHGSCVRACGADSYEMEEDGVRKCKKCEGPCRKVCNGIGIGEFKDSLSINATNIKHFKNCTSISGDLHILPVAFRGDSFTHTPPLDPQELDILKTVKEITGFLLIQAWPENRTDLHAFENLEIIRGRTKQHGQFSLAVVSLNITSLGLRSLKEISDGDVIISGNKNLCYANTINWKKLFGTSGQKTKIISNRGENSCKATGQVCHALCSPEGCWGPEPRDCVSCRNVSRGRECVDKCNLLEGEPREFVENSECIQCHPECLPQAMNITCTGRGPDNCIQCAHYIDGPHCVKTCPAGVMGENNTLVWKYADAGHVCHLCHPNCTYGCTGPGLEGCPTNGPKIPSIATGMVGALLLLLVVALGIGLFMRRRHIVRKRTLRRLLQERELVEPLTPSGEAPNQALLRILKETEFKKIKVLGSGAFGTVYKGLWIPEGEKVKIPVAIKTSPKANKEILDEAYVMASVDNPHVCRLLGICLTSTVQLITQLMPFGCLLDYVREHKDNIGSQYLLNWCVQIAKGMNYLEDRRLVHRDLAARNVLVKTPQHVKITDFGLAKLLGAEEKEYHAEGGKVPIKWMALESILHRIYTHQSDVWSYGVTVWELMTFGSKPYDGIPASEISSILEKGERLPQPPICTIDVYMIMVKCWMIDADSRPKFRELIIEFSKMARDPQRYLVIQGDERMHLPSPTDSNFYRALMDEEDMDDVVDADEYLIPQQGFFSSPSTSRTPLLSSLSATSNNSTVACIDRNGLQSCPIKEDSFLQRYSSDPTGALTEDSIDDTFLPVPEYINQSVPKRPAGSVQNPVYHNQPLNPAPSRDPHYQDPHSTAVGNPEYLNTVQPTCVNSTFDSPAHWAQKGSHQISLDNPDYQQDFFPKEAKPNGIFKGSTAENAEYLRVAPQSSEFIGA

Compound | IC50 (EGFR (d746-750)) [nM] | IC50 [1] [nM] | IC50 (EGFR L858R) [nM]
CN1CC[C@@H](Oc2cc3c(-c4cn(C)nc4-c4ccccc4)ncnc3cc2OC(F)F)[C@H](F)C1 [Example 475, 7-(difluoromethoxy)-6-{[(3R,4R)-3-fluoro-1-methylpiperidin-4-yl]oxy}-4-(1-methyl-3-phenyl-1H-pyrazol-4-yl)quinazoline] | 21 | 71.6 | 65.5
COc1cc2ncnc(-c3cn(CCO)nc3-c3ccccc3)c2cc1NC(=O)C12CC(C1)C2 [Example 265, N-(4-(1-(2-hydroxyethyl)-3-phenyl-1H-pyrazol-4-yl)-7-methoxyquinazolin-6-yl)bicyclo[1.1.1]pentane-1-carboxamide] | 1.8 | 2.3 | 3.2
COc1cc2ncnc(-c3cn(C)nc3-c3ccccc3)c2cc1NC(=O)C12CC(C1)C2 [Example 340, N-(7-methoxy-4-(1-methyl-3-phenyl-1H-pyrazol-4-yl)quinazolin-6-yl)bicyclo[1.1.1]pentane-1-carboxamide] | 1.6 | 2.5 | 3.3
COc1cc2ncnc(-c3cn(C)nc3-c3ccccc3)c2cc1NC(=O)c1ccncc1 [Example 351, N-(7-methoxy-4-(1-methyl-3-phenyl-1H-pyrazol-4-yl)quinazolin-6-yl)isonicotinamide] | 1.7 | 4.6 | 3.1
COc1cc2ncnc(-c3cn(C(F)(F)F)nc3-c3ccccc3)c2cc1NC(=O)C12CC(C1)C2 [Example 484, N-(7-methoxy-4-(3-phenyl-1-(trifluoromethyl)-1H-pyrazol-4-yl)quinazolin-6-yl)bicyclo[1.1.1]pentane-1-carboxamide] | 13.4 | 184 | 48.7
CN(C)C12CC(C(=O)Nc3nc4c(-c5cn(C)nc5-c5ccc(F)cc5)ncnc4cc3OC(F)F)(C1)C2 [Example 466, N-[7-(difluoromethoxy)-4-[3-(4-fluorophenyl)-1-methyl-1H-pyrazol-4-yl]pyrido[3,2-d]pyrimidin-6-yl]-3-(dimethylamino) bicyclo[1.1.1]pentane-1-carboxamide] | 7.3 | 31.2 | 39
COc1cc2ncnc(-c3cn(C)nc3-c3ccccc3)c2nc1O[C@H](C)c1nnnn1C [Example 46, (R)-7-methoxy-6-(1-(1-methyl-1H-tetrazol-5-yl)ethoxy)-4-(1-methyl-3-phenyl-1H-pyrazol-4-yl)pyrido[3,2-d]pyrimidine] | 1.9 | 11.7 | 4.4
CN(C)CCOc1cc2ncnc(-c3cn(C)nc3-c3ccccc3)c2cc1NC(=O)C12CC(C1)C2 [Example 299, N-(7-(2-(dimethylamino)ethoxy)-4-(1-methyl-3-phenyl-1H-pyrazol-4-yl)quinazolin-6-yl)bicyclo[1.1.1]pentane-1-carboxamide] | 5.4 | 7.1 | 15.3
COc1cc2ncnc(-c3cn(C)nc3-c3ccccc3)c2cc1-c1cccc2c1nc(CO)n2C [Example 148, (4-(7-methoxy-4-(1-methyl-3-phenyl-1H-pyrazol-4-yl)quinazolin-6-yl)-1-methyl-1H-benzo[d]imidazol-2-yl)methanol] | 3 | 8.3 | 7
CCn1cc(-c2ncnc3cc(OC)c(OC(=O)N4CCN(C)C[C@@H]4C)cc23)c(-c2ccccc2)n1 [Example 95, 4-(1-ethyl-3-phenyl-1H-pyrazol-4-yl)-7-methoxyquinazolin-6-yl(S)-2,4-dimethylpiperazine-1-carboxylate] | 1.7 | 2.4 | 3
CCC(=O)Nc1cc2c(-c3cn(C)nc3-c3ccccc3)ncnc2cc1C#CCN1CCOCC1 [Example 451, N-(4-(1-methyl-3-phenyl-1H-pyrazol-4-yl)-7-(3-morpholinoprop-1-yn-1-yl)quinazolin-6-yl)propionamide] | 2 | 2.8 | 3.5
COc1cc2ncnc(-c3cn(C)nc3-c3ccccc3)c2cc1-c1cnc(C(C)(C)O)s1 [Example 149, 2-(5-(7-methoxy-4-(1-methyl-3-phenyl-1H-pyrazol-4-yl)quinazolin-6-yl)thiazol-2-yl) propan-2-ol] | 2.1 | 12.8 | 4.9

Stronger by IC50 (EGFR (d746-750)), values ahead:

IC50 (EGFR (d746-750)) [nM] | IC50 [1] [nM] | IC50 (EGFR L858R) [nM] | Compound
1.5 | 4.1 | 2.7 | CCOc1cc2ncnc(-c3cn(C)nc3-c3ccccc3)c2cc1NC(=O)c1cnn(C(F)(F)F)c1 [Example 232, N-(7-ethoxy-4-(1-methyl-3-phenyl-1H-pyrazol-4-yl)quinazolin-6-yl)-1-(trifluoromethyl)-1H-pyrazole-4-carboxamide]
1.4 | 2.3 | 2.2 | COc1cc2ncnc(-c3cn(C)nc3-c3ccccc3)c2cc1NC(=O)C[C@@H]1CCCO1 [Example 281, (S)—N-(7-methoxy-4-(1-methyl-3-phenyl-1H-pyrazol-4-yl)quinazolin-6-yl)-2-(tetrahydrofuran-2-yl) acetamide]
1.3 | 3.1 | 3.4 | COc1cc2ncnc(-c3cn(C)nc3-c3ccccc3)c2nc1NC(=O)c1cn(C(C)C)nc1C [Example 310, 1-isopropyl-N-(7-methoxy-4-(1-methyl-3-phenyl-1H-pyrazol-4-yl)pyrido[3,2-d]pyrimidin-6-yl)-3-methyl-1H-pyrazole-4-carboxamide]
1.1 | 1.9 | 1.6 | COc1cc2ncnc(-c3cn(C)nc3-c3ccccc3)c2cc1NC(=O)c1cccc(F)c1Cl [Example 199, 2-chloro-3-fluoro-N-(7-methoxy-4-(1-methyl-3-phenyl-1H-pyrazol-4-yl)quinazolin-6-yl)benzamide]
1 | 1.2 | 3.8 | Cn1cc(-c2ncnc3cc(OC4CC4)c(NC(=O)[C@]45COCC4C5)nc23)c(-c2ccccc2)n1 (stereo partly drawn) [Example 459, (1S)—N-[7-cyclopropoxy-4-(1-methyl-3-phenyl-1H-pyrazol-4-yl)pyrido[3,2-d]pyrimidin-6-yl]-3-oxabicyclo[3.1.0]hexane-1-carboxamide]
0.9 | 1.2 | 1.6 | COCC1(C(=O)Nc2cc3c(-c4cn(C)nc4-c4ccccc4)ncnc3cc2OC)CCC1 [Example 214, N-(7-methoxy-4-(1-methyl-3-phenyl-1H-pyrazol-4-yl)quinazolin-6-yl)-1-(methoxymethyl)cyclobutane-1-carboxamide]
0.9 | 1.2 | 1.7 | COc1cc2ncnc(-c3cn(C)nc3-c3ccccc3)c2cc1NC(=O)c1cn(C(C)C)nc1C [Example 217, 1-isopropyl-N-(7-methoxy-4-(1-methyl-3-phenyl-1H-pyrazol-4-yl)quinazolin-6-yl)-3-methyl-1H-pyrazole-4-carboxamide]
0.8 | 1.7 | 1.3 | COc1cc2ncnc(-c3cn(CC(F)F)nc3-c3ccccc3)c2cc1NC(=O)c1ccc(C2CC2)nc1 [Example 333, 6-cyclopropyl-N-(4-(1-(2,2-difluoroethyl)-3-phenyl-1H-pyrazol-4-yl)-7-methoxyquinazolin-6-yl) nicotinamide]
0.8 | 1.4 | 1.8 | COc1cc2ncnc(-c3cn(C)nc3-c3ccccc3F)c2cc1NC(=O)[C@@]12COC[C@@H]1C2 (single isomer, unassigned) [Example 240, (1R,5R)—N-(4-(3-(2-fluorophenyl)-1-methyl-1H-pyrazol-4-yl)-7-methoxyquinazolin-6-yl)-3-oxabicyclo[3.1.0]hexane-1-carboxamide or (1S,5S)—N-(4-(3-(2-fluorophenyl)-1-methyl-1H-pyrazol-4-yl)-7-methoxyquinazolin-6-yl)-3-oxabicyclo[3.1.0]hexane-1-carboxamide]
0.7 | 0.8 | 1.1 | COc1cc2ncnc(-c3cn(C)nc3-c3ccccc3)c2nc1O[C@@H](C)c1csc(C)n1 [Example 33, (S)-4-(1-((7-methoxy-4-(1-methyl-3-phenyl-1H-pyrazol-4-yl)pyrido[3,2-d]pyrimidin-6-yl)oxy)ethyl)-2-methylthiazole]
0.7 | 0.4 | 1.1 | Cn1cc(-c2ccc3c(-c4c[nH]nc4-c4ccccc4)ncnc3c2)cn1 [Example 441, 7-(1-methyl-1H-pyrazol-4-yl)-4-(3-phenyl-1H-pyrazol-4-yl)quinazoline]
0.7 | 0.4 | 1.1 | COc1cc2ncnc(-c3cn(CC(F)F)nc3-c3ccccc3)c2nc1NC(=O)C1(C(F)(F)F)CC1 [Example 370, N-(4-(1-(2,2-difluoroethyl)-3-phenyl-1H-pyrazol-4-yl)-7-methoxypyrido[3,2-d]pyrimidin-6-y1)-1-(trifluoromethyl)cyclopropane-1-carboxamide]
0.3 | 0.3 | 0.5 | COc1cc2ncnc(-c3cn(C)nc3-c3ccccc3)c2nc1O[C@@H](C)c1cscn1 (single isomer, unassigned) [Example 50, (S)-4-(1-((7-methoxy-4-(1-methyl-3-phenyl-1H-pyrazol-4-yl)pyrido[3,2-d]pyrimidin-6-yl)oxy)ethyl)thiazole or (R)-4-(1-((7-methoxy-4-(1-methyl-3-phenyl-1H-pyrazol-4-yl)pyrido[3,2-d]pyrimidin-6-yl)oxy)ethyl)thiazole]
